Assay results published in patent publication US20040072146A1, “Mechanism of mitochondrial membrane permeabilization by HIV-1 Vpr, mimetics of Vpr and methods of screening active molecules having the ability to alter and/or prevent and/or mimic the interaction of Vpr with ANT” (priority 2000, published 2004).

Key:
ANT [1] = biological target: T1, ANT (Rattus norvegicus, UniProt Q05962); settings: surface plasmon resonance, Jacotot et al. 2000; cited from earlier work
T1 construct: from tissue

ANT [2] = biological target: T1, ANT; assay type: binding; settings: purified detergent-solubilized ANT
Text: A Plasma surface resonance sensorgrams of the interaction of ANT with Vpr52-96, Vpr52-96[R73A, 80A] or an irrelevant control (Co).
B. Langmuir isotherm determined at different concentrations of ANT on sensorgrams corrected by substraction of the blank (sensorgrams obtained with Vpr52-96[R73A, 80A]).

ANT [3] = biological target: T1, ANT; assay: Single channel recordings in planar lipid bilayers; assay type: biochemical
Protocol: FIG. 3 presents electrophysiological properties of Vpr52-96 and ANT in planar lipid bilayers. Current fluctuations of Vpr52-96 (80 nM, +150 mV), Vpr52-96(0.4 nM, +100 mV), ANT (1 nM, +110 mV) and Vpr52-96+ANT (0.4:1 nM, +115 mV) and associated histograms (right) of conductance levels are shown.
Current fluctuations of Vpr52-96 (80 nM, +150 mV), Vpr52-96 (0.4 nM, +100 mV), ANT (1 nM, +110 mV) and Vpr52-96+ANT (0.4:1 nM, 115 mV) after incorporation into synthetic membranes. Single channel recordings were performed using the “Tip-Dip” technique. The recordings shown are representative for at least three independent determinations.
B. Statistical analysis of conductances obtained in A. Results were expressed as current distributions at different voltages. Conductances (γ; in picosiemens, pS) are calculated by division of current by voltage.

isolated mitochondria = assay: Electron microscopy of isolated mitochondria (matrix swelling); assay type: biochemical; settings: 3 μM Vpr52-96, 5 or 15 min
Text: C. Ultrastructural effects of Vpr on isolated mitochondria.

purified mitochondria [4] = assay: Respirometry of purified mitochondria, respiratory control; assay type: biochemical; settings: 1 μM peptide, 10 min
Protocol: A. Oxygen consumption curves after addition of the indicated agents. Trace a: control mitochondria (no pretreatment). Trace b: mitochondria pretreated for 10 min with 1 μM Vpr52-96. Numbers along the traces are nmol of O2 consumed min^−1 mg^31 1 protein.
B. Respiratory control (RC) values calculated by dividing oxygen consumption in the presence of CCCP by that measured with oligomycin (determined as in A), 10 min after addition of 1 μM of Vpr-derived peptides (mean values of 3 determinations).

purified mitochondria [5] = assay: FITC-Vpr52-96 binding to purified mitochondria; settings: 0.5 μM FITC-Vpr52-96
Protocol: Mitochondria were left unstained (insert in Co.) or exposed to the ΔΨm-insensitive mitochondrial dye MitoTracker® Green (75 nM), alone (MTG) or with 0.5 μM of FITC-Vpr52-96; green fluorescence), in combination with the ΔΨm-sensitive mitochondrial dye MitoTracker® Red (CMXRos; red Fluorescence) followed by cytofluorometric two-color analysis. Numbers indicate the percentage of mitochondria in each quadrant.
Mitochondria were incubated with the indicated inhibitors, and then exposed for 30 min at RT with 5 μM biotinylated Vpr52-96. Mitochondria were lysed either after incubation with biotinylated Vpr52-96 (upper panel) or lysed before (lower panel) with Tris/HCl as described in materials and methods. Biotinylated Vpr52-96 complexed with its mitochondrial ligands was retained on avidin-agarose and subjected to immunoblot detection of ANT.

ANT-proteoliposomes = biological target: T2, ANT-proteoliposomes (Rattus norvegicus, UniProt Q05962); assay: FITC-labeled Vpr52-96 binding onto ANT-liposomes and plain liposomes
T2 construct: ANT is purified from rat heart and reconstituted in liposomes; from tissue; host or cells: rat heart (ANT)
T2 sequence (Q05962 1-298): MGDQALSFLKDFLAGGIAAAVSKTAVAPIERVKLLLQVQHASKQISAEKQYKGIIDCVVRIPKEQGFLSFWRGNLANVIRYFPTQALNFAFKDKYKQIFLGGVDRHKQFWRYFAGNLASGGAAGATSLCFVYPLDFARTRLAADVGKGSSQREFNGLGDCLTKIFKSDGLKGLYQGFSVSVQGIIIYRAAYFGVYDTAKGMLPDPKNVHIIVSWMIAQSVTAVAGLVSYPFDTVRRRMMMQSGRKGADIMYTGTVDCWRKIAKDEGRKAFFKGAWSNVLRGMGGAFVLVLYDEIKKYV
Protocol: A. Dose-response curve of FITC-labeled Vpr52-96 binding onto ANT-liposomes and plain liposomes.
B. Binding of FITC-Vpr52-96 (2 μM) to plain liposomes, ANT-proteoliposomes, in the presence or absence of BA (50 μM).

purified mitochondria [6] = assay: Inner versus outer mitochondrial membrane permeabilization (NADH oxidation, cytochrome c oxidation); assay type: biochemical
Protocol: A. Respirometry performed after addition of NADH and Vpr52-96 (1 μM). Numbers along the traces are nmol of O2 consumed min^−1 mg^−1 protein.
B. Kinetics of Vpr52-96 induced inner membrane permeabilization to NADH and outer membrane permeabilization to reduced cytochrome c. Oxygen consumption was determined in the presence of 2 mM NADH (full squares) as in A (traces C-D) and cytochrome c (15 μM) oxidation (open circles) was spectrofluorometrically measured, as described Rustin et al., 1994). The 100% value of cytochrome c oxidation was determined by addition of 2.5 mM laurylmaltoside.
Oxygen consumption of purified mitochondria was measured as in FIG. 5 after addition of succinate+CCCP or NADH, as indicated.

CC[C@H](C)[C@H](NC(=O)[C@H](C)NC(=O)[C@H](CCC(=O)O)NC(=O)[C@@H](NC(=O)CNC(=O)[C@H](C)NC(=O)[C@H](Cc1c[nH]c2ccccc12)NC(=O)[C@@H](NC(=O)[C@@H](N)CC(=O)O)[C@@H](C)O)C(C)C)C(=O)N[C@H](C(=O)N[C@@H](CCCNC(=N)N)C(=O)N[C@H](C(=O)N[C@@H](CC(C)C)C(=O)N[C@@H](CCC(N)=O)C(=O)N[C@@H](CCC(N)=O)C(=O)N[C@@H](CC(C)C)C(=O)N[C@@H](CC(C)C)C(=O)N[C@@H](Cc1ccccc1)C(=O)N[C@H](C(=O)N[C@@H](Cc1c[nH]cn1)C(=O)N[C@@H](Cc1ccccc1)C(=O)N[C@@H](CCCNC(=N)N)C(=O)N[C@H](C(=O)NCC(=O)N[C@@H](CS)C(=O)N[C@@H](CCCNC(=N)N)C(=O)N[C@@H](Cc1c[nH]cn1)C(=O)N[C@@H](CO)C(=O)N[C@@H](CCCNC(=N)N)C(=O)N[C@H](C(=O)NCC(=O)N[C@H](C(=O)N[C@H](C(=O)N[C@@H](CCCNC(=N)N)C(=O)N[C@@H](CCC(N)=O)C(=O)N[C@@H](CCCNC(=N)N)C(=O)N[C@@H](CCCNC(=N)N)C(=O)N[C@@H](C)C(=O)N[C@@H](CCCNC(=N)N)C(=O)N[C@@H](CC(N)=O)C(=O)NCC(=O)N[C@@H](C)C(=O)N[C@@H](CO)C(=O)N[C@@H](CCCNC(=N)N)C(=O)N[C@@H](CO)C(=O)O)[C@@H](C)O)C(C)C)[C@@H](C)CC)[C@@H](C)CC)[C@@H](C)CC)[C@@H](C)CC)[C@@H](C)CC [Vpr52-96]
affinity of Vpr C-terminus for purified ANT (ANT [1]): high affinity in the nanomolar range
binding of ANT to immobilized peptide (sensorgram) (ANT [2]): exhibits an increase of binding as a function of time and a positive signal at the start of the dissociation phase
conductance of channels formed by ANT and Vpr52-96 (ANT [3]; Vpr52-96+ANT 0.4:1 nM): 190±2 pS
mean conductance of Vpr52-96-ANT channels without any further addition (ANT [3]; as restated in Example 4): 190±2
conductance of channels formed by Vpr52-96 alone (ANT [3]; high doses (80 nM), no ANT): 55±2 pS
channel formation in planar lipid bilayers (ANT [3]; low doses (<1 nM)): incapable of forming channels, unless ANT was present
ultrastructural effect on mitochondria (isolated mitochondria): exhibited matrix swelling before OM rupture became apparent
effect on respiratory control (RC) (purified mitochondria [4]): exhibited a gross deficiency in respiratory control (RC)
respiratory control (RC) value (purified mitochondria [4]; 5.3 in control mitochondria): 1.1
Vpr52-96 binding to mitochondria relative to ΔΨm loss (purified mitochondria [5]): binds mitochondria before inducing ΔΨm loss
Vpr52-96 binding to membranes, ANT liposomes versus protein-free liposomes (ANT-proteoliposomes): greatly facilitated in liposomes in which ANT has been reconstituted as compared to protein-free liposomes
order of inner and outer MMP (purified mitochondria [6]): causes inner MMP well before OM becomes permeable to exogenous cytochrome c
time to maximal NADH oxidation (purified mitochondria [6]; Vpr52-96 1 μM, 2 mM NADH): 10 min
